Read-outs that look alike come from different tables or passages of the source.
Key:
[1] = target: T1, Human cytomegalovirus DNA polymerase (Human cytomegalovirus, UniProt P08546); assay: HCMV polymerase assay (AlphaLISA); assay type: biochemical; settings: HCMV DNA polymerase 0.2 nM, 60 minutes at 37° C.; read-out: CMV (IC50)
T1 construct: made in house; host or cells: SF21 insect cells (baculovirus vector)
Procedure, shortened: (§1)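 Baculovirus/SF21-expressed polymerase (HCMV 0.2 nM; VZV 0.4 nM) pre-incubated 30 min at room temperature with compound in HEPES pH 7.5 buffer, then 60 min at 37 °C with 1.6 nM DIG-primer/template, sub-nM to 24 nM dNTPs and 0.8 nM biotin-dUTP. AlphaLISA detection; IC50 from 4-parameter fit.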

[2] = target: T2, varicella zoster virus DNA polymerase (Varicella-zoster virus, UniProt P09252); assay: VZV polymerase assay (AlphaLISA); assay type: biochemical; settings: VZV DNA polymerase 0.4 nM, 60 minutes at 37° C.
T2 construct: made in house; host or cells: SF21 insect cells (baculovirus vector)
T2 sequence (P09252 whole entry): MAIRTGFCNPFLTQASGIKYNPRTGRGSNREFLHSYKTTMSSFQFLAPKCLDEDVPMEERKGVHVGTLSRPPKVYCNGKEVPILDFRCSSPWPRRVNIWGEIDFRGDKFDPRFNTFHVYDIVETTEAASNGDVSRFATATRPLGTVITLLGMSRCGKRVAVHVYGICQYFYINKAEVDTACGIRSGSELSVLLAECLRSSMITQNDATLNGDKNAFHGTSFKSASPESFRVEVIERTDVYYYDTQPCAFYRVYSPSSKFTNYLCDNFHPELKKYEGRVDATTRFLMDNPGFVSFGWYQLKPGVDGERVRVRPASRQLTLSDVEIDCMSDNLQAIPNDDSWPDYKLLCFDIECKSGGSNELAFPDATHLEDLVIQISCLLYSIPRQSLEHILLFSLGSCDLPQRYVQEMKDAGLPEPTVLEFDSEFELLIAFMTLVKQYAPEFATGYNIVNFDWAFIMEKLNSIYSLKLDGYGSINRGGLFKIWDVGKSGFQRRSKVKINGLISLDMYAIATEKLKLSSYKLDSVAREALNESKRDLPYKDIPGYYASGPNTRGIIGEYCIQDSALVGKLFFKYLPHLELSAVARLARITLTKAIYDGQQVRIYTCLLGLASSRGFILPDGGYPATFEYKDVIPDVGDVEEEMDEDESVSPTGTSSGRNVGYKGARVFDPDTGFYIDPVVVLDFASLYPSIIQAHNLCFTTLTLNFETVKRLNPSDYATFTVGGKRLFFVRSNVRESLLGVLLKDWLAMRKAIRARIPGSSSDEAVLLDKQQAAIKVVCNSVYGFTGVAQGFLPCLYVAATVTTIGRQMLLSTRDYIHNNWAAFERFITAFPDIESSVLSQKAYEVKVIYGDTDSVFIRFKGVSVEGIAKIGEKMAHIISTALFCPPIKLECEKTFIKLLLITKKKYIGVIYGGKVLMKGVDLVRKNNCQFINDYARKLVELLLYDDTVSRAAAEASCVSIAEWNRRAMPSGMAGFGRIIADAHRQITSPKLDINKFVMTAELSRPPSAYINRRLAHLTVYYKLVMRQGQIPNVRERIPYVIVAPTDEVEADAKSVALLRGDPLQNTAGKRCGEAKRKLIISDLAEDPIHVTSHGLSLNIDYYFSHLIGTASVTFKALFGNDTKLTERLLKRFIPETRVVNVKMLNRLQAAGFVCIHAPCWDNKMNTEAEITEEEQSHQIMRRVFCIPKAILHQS
Procedure, shortened: as §1

[3] = test system: HSV2; assay: Viral qPCR assay, HSV2 in MRC5 cells; assay type: cell-based, Herpes Simplex Virus type 2; settings: read-out: HSV2 MRC5 Cell (EC50)
Procedure, shortened: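 Vero or MRC5 cells infected in suspension with HSV2 and added to a 10-point 3-fold compound dilution, then ~72 h at 37 °C. Lysates assayed by TaqMan qPCR against a plasmid standard curve; copies normalized to controls (with PPIA in one format) and EC50 from 4-parameter fit.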

[4] = test system: HSV2; assay: Viral qPCR assay, HSV2 in Vero cells; assay type: cell-based, Herpes Simplex Virus type 2; settings: read-out: HSV2 VERO Cell (EC50)
Experimental: (§2) MRCS cells, Vero cells, and MeWo cells were obtained from ATCC and were maintained at 37° C./5% CO2/90% relative humidity in Minimal Essential Medium with 10% fetal bovine serum, […] L-glutamine, 100 units/ml penicillin and 100 ug/ml streptomycin. Assay plates were prepared by dispensing compounds dissolved in DMSO into wells of 384 well collagen-coated plates using an ECHO acoustic dispenser. Each compound was tested in a 10-point, serial 3-fold dilution. Controls included uninfected cells and infected cells treated only with DMSO. Assays were initiated by mixing selected cells, in suspension, with virus, and dispensing 50 μl/well infected cells to pre-plated compounds. Plates were incubated at 37° C./5% CO2/90% relative humidity for ˜72 hrs to permit genomic replication, and infected cells were lysed by the addition of an equal volume of lysis buffer (10 mM Tris-HCl, pH8, 50 mM KCl, 2 mM MgCl2, 0.45% NP-40, 0.45% Tween-20, and 100 μg/ml proteinase K). An aliquot of the lysate was transferred to a 384-well PCR plate and incubated at 56° C. for 1 hour and then at 95° C. for 10 min. Levels of a viral gene and of the cellular control, PPIA (Thermo Fisher Assay ID=Hs04194521_s1), were measured in separate 10 μL qPCR assays using TaqMan® Gene Expression Master Mix (Applied Biosystems), and an 7900HT Fast Real-Time PCR System with 384-Well Block Module. 7-point, serial 10-fold dilutions of a plasmid standard were run on each plate to generate a standard curve, and genome copies numbers were calculated by plotting experimental Ct onto linear regression of the standard curve. Viral genome copy numbers were normalized by cellular control copy number, and compound effects were normalized to the window defined by the controls. Calculated % effects were fit using a 4-parameter algorithm, and EC50 was reported.
as §2, with “gene” for “gene and of the cellular control, PPIA (Thermo Fisher Assay ID=Hs04194521_s1),”, “in” for “in separate”, “Compound effects on viral” for “Viral”, “number” for “numbers were normalized by cellular control copy number, and compound effects”

[5] = test system: VZV; assay: Viral qPCR assay, VZV in MRC5 cells; assay type: cell-based, varicella zoster virus; settings: read-out: VZV MRC5 Cell (IC50)
Procedure, shortened: (§3)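 MRC5, MeWo (VZV Street strain, 0.04-0.1 pfu/cell) or Vero/MRC5 (HSV-1 Strain F, 0.0005-0.004 pfu/cell) cells infected in suspension and added to 10-point 3-fold compound dilutions; ~72 h at 37 °C. Lysates qPCR-quantified for viral genome copies against plasmid standard curve, in one format normalized to cellular PPIA; 4-parameter fit gives EC50.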

[6] = test system: HSV-1 Strain F; assay: Viral qPCR assay, HSV-1 in Vero cells; assay type: cell-based, Herpes Simplex Virus type 1; settings: read-out: HSV1 VERO Cell (EC50)
Experimental: as §2
as §2, with “gene” for “gene and of the cellular control, PPIA (Thermo Fisher Assay ID=Hs04194521_s1),”, “in” for “in separate”, “Compound effects on viral” for “Viral”, “number” for “numbers were normalized by cellular control copy number, and compound effects”
(§4) VZV: Strain Street was maintained as an infected cell stock in MRC-5 cells. It was assayed in MeWo or MRCS cells and was used at 0.04-0.1 pfu/cell. The assays were performed in growth medium. Primer-probe set was Thermo Fisher Assay ID=AIPAEXQ. HSV-1: Strain F Street was assayed in Vero or MRCS cells and was used at 0.0005-0.004 pfu/cell in growth medium. Primer-probe set was Thermo Fisher Assay ID=AIBJZIB

[7] = test system: HSV-1 Strain F; assay: Viral qPCR assay, HSV-1 in MRC5 cells; assay type: cell-based, Herpes Simplex Virus type 1; settings: read-out: HSV1 MRC5 Cell (EC50)
Procedure, shortened: as §3

[8] = test system: HCMV Strain AD169; assay: Viral qPCR assay, HCMV in MRC-5 cells; assay type: cell-based, Human cytomegalovirus; settings: read-out: CMV MRC5 Cell (EC50)
Procedure, shortened: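 MRC-5 cells infected in suspension with HCMV AD169 (0.05-0.1 pfu/cell) and added to 10-point 3-fold compound dilutions, in growth media or media with 50% FBS. After ~72 h at 37 °C, lysates analysed by TaqMan qPCR against a plasmid standard curve, viral copies normalised to PPIA or not. EC50 from 4-parameter fit.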

[9] = test system: VZV; assay: Viral qPCR assay, VZV in MeWo cells; assay type: cell-based, varicella zoster virus; settings: read-out: VZV MEWO Cell (IC50)
Experimental: as §2
as §2, with “gene” for “gene and of the cellular control, PPIA (Thermo Fisher Assay ID=Hs04194521_s1),”, “in” for “in separate”, “Compound effects on viral” for “Viral”, “number” for “numbers were normalized by cellular control copy number, and compound effects”
as §4

[10] = Human alphaherpesvirus 2, Vero, 72 h
[11] = Human alphaherpesvirus 1, Vero, 72 h
[12] = Human betaherpesvirus 5, AD169, MRC5, 72 h
[13] = Human alphaherpesvirus 3, ~72 hrs
[14] = Human alphaherpesvirus 2, MRC5, 72 h
[15] = Human alphaherpesvirus 3, MRC5, 72 h
[16] = Human alphaherpesvirus 1, MRC5, 72 h

T1 sequence (P08546 whole entry): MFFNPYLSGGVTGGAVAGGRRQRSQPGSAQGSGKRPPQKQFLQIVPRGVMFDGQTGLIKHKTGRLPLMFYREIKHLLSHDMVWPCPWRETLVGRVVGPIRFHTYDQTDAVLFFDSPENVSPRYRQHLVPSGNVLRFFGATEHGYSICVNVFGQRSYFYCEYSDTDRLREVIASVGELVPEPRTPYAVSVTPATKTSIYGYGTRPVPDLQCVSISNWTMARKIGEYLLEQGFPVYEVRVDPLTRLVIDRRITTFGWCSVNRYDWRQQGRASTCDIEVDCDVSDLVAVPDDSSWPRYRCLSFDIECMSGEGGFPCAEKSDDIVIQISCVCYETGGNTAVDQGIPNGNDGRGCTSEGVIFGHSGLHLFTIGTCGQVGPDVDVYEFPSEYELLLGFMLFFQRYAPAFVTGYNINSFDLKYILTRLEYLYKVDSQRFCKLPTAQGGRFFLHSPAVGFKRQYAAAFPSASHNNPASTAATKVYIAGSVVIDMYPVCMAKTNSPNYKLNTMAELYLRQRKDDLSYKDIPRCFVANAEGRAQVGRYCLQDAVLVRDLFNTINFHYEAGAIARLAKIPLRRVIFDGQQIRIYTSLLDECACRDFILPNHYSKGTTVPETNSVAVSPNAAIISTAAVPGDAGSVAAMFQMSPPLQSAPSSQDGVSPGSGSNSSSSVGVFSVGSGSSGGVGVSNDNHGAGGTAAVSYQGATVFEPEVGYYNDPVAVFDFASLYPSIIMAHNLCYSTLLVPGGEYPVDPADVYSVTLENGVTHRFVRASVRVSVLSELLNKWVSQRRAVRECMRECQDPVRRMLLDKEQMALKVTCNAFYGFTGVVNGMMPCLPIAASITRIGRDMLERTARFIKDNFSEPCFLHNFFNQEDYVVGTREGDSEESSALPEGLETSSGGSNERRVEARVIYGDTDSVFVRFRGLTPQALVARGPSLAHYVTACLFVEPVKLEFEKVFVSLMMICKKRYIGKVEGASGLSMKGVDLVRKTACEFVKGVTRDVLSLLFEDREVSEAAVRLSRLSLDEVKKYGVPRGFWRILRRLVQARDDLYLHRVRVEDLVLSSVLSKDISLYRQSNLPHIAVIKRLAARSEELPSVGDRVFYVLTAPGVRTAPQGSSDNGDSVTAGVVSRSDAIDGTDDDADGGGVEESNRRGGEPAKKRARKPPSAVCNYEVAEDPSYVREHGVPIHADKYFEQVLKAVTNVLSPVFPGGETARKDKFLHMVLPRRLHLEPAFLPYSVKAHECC

Row | Structure (SMILES) | IC50 [1] [nM] | IC50 [2] [nM] | EC50 ([3]; ~72 hrs) [nM] | EC50 ([4]; ~72 hrs) [nM] | IC50 ([5]; ~72 hrs) [nM] | EC50 ([6]; ~72 hrs) [nM] | EC50 ([7]; ~72 hrs) [nM] | EC50 ([8]; MRC5 cells, ~72 hrs) [nM] | IC50 ([9]; ~72 hrs) [nM] | EC50 [4, 10] [nM] | EC50 [6, 11] [nM] | EC50 [8, 12] [nM] | IC50 [9, 13] [nM] | EC50 [3, 14] [nM] | IC50 [5, 15] [nM] | EC50 [7, 16] [nM]
1 | Cn1nc(C(=O)NCc2ccc(Cl)cc2)c2c1CC(C[C@@H]1CCC(=O)N1)C2 (single isomer, unassigned) [Compound 127] | 48.9 | 9.72 | 278 | 364 | 407 | 240 | 694 | 599 | 130 |  |  |  |  |  |  | 
2 | Cn1nc(C(=O)NCc2ccc(Cl)cc2)c2c1CC(C[C@H]1CCC(=O)N1)C2 (single isomer, unassigned) [Compound 129] | 74.2 | 9.1 | 384 | 422 | 371 | 264 | 1020 | 1570 | 154 |  |  |  |  |  |  | 
3 | CN(CCn1nc(C(=O)NCc2ccc(Cl)cc2)c2c1CN(C[C@H]1CCC(=O)N1)C2)C(=O)C1CCC1 [Compound 3] | 8.75 | 3.45 |  |  |  |  |  |  |  | 56900 | 33300 | 1260 | 342 |  |  | 
4 | CC(C)C(=O)NCCn1nc(C(=O)NCc2ccc(Cl)cc2)c2c1CN(C[C@H]1CCC(=O)N1)C2 [Compound 25] | 11.3 | 11.5 |  |  |  |  |  |  |  | 99000 | 99000 | 970 | 484 | 16400 | 29000 | 17400
5 | O=C1CC[C@H](CN2Cc3c(C(=O)NCc4ccc(Cl)cc4)nn(CC4CCCO4)c3C2)N1 (stereo partly drawn) [Compound 29] | 186 | 57.8 |  |  |  |  |  |  |  | 8930 | 5320 | 3680 | 258 |  |  | 
6 | CC1(Cn2nc(C(=O)NCc3ccc(Cl)cc3)c3c2CN(C[C@H]2CCC(=O)N2)C3)COC1 [Compound 30] | 245 | 65.9 |  |  |  |  |  |  |  | 16400 | 12000 | 5750 | 2350 |  |  | 
7 | O=C1CC[C@H](CN2Cc3c(C(=O)NCc4ccc(Cl)cc4)nn(CCn4ccc(Cl)n4)c3C2)N1 [Compound 36] | 8.94 | 5.85 |  |  |  |  |  |  |  | 2840 | 1190 | 453 | 102 | 960 | 856 | 1270
8 | O=C1CC[C@H](CN2Cc3c(C(=O)NCc4ccc(Cl)cc4)nn(CCC4CCOC4)c3C2)N1 (stereo partly drawn) [Compound 38] | 34.6 | 15.6 |  |  |  |  |  |  |  | 5830 | 2580 | 1240 | 500 |  |  | 
9 | CC(C)(O)Cn1nc(C(=O)NCc2ccc(Cl)cc2)c2c1CN(C[C@H]1CCC(=O)N1)C2 [Compound 58] | 120 | 18.9 |  |  |  |  |  |  |  | 712 | 536 | 1230 | 602 |  |  | 
10 | Cn1nc(C(=O)NCc2ccc(Cl)c(F)c2)c2c1CN(C[C@H]1CCC(=O)N1)C2 [Compound 60] | 143 | 112 |  |  |  |  |  |  |  | 5460 | 2850 | 970 | 1470 | 5570 | 5960 | 8350

Reference: patent US20240059693A1, “FUSED BICYCLIC PYRAZOLE DERIVATIVES AND METHODS OF USE THEREOF FOR THE TREATMENT OF HERPESVIRUSES” (Merck Sharp & Dohme LLC, priority 2020, published 2024)
